From patent publication US7029846B2, “Site-specific protein modification” (University of Medicine and Dentistry of New Jersey, priority 2000, dated 2006)
Starred links: 1 amine or outer side, 2 acyl side, 3 side chain; linkers in the order of their positions; H or OH if unused. Non-standard residues stand in square brackets, D forms with d. No end group written: not given here. Tyr(3-Ac) = 3-acetyl-tyrosine, CC(=O)c1cc(C[C@H](N[*:1])C(=O)[*:2])ccc1O[*:3]

Biological target: rhodamine labeled TAR RNA (TAR-Rh)
Test: FRET fluorescence quenching titration of fluorescein labeled Tat peptide with rhodamine labeled TAR RNA
Assay type: binding, HIV-1
Details: quenching of Tat-Fl (5 nM) emission at 512 nm with increasing TAR-Rh, 50 mM Tris-HCl, pH 7.4 at 25° C., 20 mM KCl, fit to quadratic equation (1), read-out: dissociation constant (KD)
Experimental: FIG. 2(B). Fluorescence intensity of Tat-Fl (5 nM) at 512 nm in the presence of increasing TAR-Rh concentrations. The solid line represents the best fits of the data by nonlinear regression to quadratic equation (1). The fluorescence measurements were performed on PTI fluorescence spectrophotometer controlled by Felix software. The excitation wavelength was 492 nm and slits width was set 3.5 nm for both excitation and emission. All samples were corrected for the light source excitation effect and for the background intensity of buffer fluorescence as well as for dilution factors. Buffer conditions: […] Tris-HCl, pH 7.4 at 25° C., 20 mM KCl.
To determine the binding affinities of a Tat peptide under physiological conditions and test the application of acetyl-Tyr, we developed a fluorescence resonance energy transfer (FRET) system containing TAR RNA and a Tat peptide uniquely labeled with donor and acceptor dye molecules (FIG. 1). […] (Clegg, R. M. (1992) Fluorescence resonance energy transfer and nucleic acids, Methods Enzymol. 211, 353–88; Yang, M., and Millar, D. P. (1997) Fluorescence resonance energy transfer as a probe of DNA structure and function, Methods Enzymol. 278, 417–444). The donor's lifetime and quantum yield are reduced upon energy transfer, and the acceptor fluorescence is increased, or sensitized. […]

## Acetyl-Tyr-Tat peptide: HIV-1 Tat peptide (amino acids 47–56) with Tyr-47 replaced by 3-Acetyl-Tyrosine ([Tyr(3-Ac)]GRKKRRQRR)
  Kd: 1 ± 0.5 nM
